{"source": "ChEMBL document CHEMBL4831544", "about": "“Discovery of IHMT-EZH2-115 as a Potent and Selective Enhancer of Zeste Homolog 2 (EZH2) Inhibitor for the Treatment of B-Cell Lymphomas” (J Med Chem, 2021)", "key": {"[1]": {"biological_target": "Histone-lysine N-methyltransferase EHMT2 (Homo sapiens) (UniProt Q96KQ7)", "sequence (Q96KQ7 whole entry)": "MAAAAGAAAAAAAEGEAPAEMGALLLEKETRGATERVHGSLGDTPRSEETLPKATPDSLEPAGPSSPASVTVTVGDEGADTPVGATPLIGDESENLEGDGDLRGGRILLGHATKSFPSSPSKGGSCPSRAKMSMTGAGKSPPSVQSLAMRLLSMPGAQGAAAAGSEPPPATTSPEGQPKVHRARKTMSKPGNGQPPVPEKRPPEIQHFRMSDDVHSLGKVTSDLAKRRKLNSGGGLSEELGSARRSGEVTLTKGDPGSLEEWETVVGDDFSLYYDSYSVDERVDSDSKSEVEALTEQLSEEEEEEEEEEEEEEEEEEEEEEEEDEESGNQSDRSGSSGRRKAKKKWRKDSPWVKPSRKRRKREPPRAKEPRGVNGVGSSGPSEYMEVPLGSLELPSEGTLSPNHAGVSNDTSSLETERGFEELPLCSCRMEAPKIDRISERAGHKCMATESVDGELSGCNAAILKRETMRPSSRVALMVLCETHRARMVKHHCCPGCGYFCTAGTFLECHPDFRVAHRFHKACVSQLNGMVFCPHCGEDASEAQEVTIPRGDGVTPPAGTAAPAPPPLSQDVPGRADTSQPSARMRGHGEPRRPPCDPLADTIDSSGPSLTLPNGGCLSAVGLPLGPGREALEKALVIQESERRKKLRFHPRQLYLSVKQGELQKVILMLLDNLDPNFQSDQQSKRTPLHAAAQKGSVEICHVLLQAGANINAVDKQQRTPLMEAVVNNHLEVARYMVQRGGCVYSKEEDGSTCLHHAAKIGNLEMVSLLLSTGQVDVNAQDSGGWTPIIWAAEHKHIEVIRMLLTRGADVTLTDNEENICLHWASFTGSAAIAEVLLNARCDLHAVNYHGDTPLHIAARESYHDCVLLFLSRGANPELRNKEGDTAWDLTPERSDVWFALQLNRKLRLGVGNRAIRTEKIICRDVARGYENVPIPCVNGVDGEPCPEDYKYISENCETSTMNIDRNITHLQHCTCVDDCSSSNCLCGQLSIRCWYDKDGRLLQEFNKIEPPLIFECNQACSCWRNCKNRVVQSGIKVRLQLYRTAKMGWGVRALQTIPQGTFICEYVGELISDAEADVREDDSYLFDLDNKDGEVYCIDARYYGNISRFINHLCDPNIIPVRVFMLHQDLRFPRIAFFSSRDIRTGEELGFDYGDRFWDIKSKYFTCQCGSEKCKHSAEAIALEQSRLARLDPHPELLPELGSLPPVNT", "test": "Inhibition of G9A (unknown origin) at 10 uM using SAM as substrate measured up to 960 mins by AlphaScreen microplate reader assay relative to control", "conditions": "time min <=960"}, "[2]": {"biological_target": "Protein arginine N-methyltransferase 3 (Homo sapiens) (UniProt O60678)", "sequence (O60678 2-531 limits assumed)": "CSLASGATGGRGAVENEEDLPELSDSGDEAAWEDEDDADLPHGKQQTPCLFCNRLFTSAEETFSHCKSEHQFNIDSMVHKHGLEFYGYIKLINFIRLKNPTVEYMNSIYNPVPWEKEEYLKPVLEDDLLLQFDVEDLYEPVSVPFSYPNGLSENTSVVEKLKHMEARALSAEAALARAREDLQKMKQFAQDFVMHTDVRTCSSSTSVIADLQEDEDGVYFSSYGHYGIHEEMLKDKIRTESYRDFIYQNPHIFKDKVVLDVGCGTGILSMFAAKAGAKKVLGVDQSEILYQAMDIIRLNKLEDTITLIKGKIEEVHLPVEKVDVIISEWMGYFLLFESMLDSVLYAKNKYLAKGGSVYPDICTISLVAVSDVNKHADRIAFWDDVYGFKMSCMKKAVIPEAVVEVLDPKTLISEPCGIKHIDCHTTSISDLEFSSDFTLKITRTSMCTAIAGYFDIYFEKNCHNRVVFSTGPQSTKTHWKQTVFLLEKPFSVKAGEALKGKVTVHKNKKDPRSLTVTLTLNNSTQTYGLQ", "test": "Inhibition of PRMT3 (unknown origin) at 10 uM using SAM as substrate measured up to 960 mins by AlphaScreen microplate reader assay relative to control", "conditions": "time min <=960"}, "[3]": {"test": "Oral bioavailability in rat at 10 mg/kg", "type": "ADME, organism-based", "conditions": "in vivo"}, "[4]": {"test": "Apparent volume of distribution in mouse at 1 mg/kg, iv measured up to 24 hrs by LC-MS/MS analysis", "type": "ADME, organism-based", "conditions": "in vivo"}, "[5]": {"biological_target": "Histone-lysine N-methyltransferase KMT5B (Homo sapiens) (UniProt Q4FZB7)", "sequence (Q4FZB7 whole entry, looked up)": "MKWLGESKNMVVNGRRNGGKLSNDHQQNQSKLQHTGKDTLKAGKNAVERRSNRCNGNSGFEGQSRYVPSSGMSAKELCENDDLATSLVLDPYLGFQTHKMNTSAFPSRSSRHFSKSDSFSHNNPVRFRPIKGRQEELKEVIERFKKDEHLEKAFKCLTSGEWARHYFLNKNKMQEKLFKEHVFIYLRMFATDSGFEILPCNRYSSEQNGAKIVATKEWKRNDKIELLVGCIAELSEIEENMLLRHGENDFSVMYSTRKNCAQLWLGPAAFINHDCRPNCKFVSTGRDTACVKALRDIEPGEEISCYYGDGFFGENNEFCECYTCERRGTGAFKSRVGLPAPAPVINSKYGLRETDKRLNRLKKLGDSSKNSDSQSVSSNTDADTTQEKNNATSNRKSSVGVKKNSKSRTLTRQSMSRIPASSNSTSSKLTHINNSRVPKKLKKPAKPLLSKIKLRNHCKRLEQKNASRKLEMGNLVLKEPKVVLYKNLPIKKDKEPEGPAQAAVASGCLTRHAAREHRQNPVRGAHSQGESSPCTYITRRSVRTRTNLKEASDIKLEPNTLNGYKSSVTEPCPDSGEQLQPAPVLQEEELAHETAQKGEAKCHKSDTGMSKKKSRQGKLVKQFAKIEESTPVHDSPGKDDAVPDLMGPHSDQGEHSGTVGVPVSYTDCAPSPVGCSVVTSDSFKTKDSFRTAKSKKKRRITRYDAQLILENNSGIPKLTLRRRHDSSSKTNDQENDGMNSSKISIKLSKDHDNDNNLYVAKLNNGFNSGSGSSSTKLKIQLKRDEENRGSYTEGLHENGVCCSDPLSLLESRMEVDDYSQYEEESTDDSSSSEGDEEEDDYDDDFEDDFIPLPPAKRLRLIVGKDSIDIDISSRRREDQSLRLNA", "test": "Inhibition of SUV4-20H1 (unknown origin) at 10 uM using SAM as substrate measured up to 960 mins by AlphaScreen microplate reader assay relative to control", "conditions": "time min <=960"}, "[6]": {"biological_target": "Histone-lysine N-methyltransferase SUV39H1 (Homo sapiens) (UniProt O43463)", "sequence (O43463 whole entry)": "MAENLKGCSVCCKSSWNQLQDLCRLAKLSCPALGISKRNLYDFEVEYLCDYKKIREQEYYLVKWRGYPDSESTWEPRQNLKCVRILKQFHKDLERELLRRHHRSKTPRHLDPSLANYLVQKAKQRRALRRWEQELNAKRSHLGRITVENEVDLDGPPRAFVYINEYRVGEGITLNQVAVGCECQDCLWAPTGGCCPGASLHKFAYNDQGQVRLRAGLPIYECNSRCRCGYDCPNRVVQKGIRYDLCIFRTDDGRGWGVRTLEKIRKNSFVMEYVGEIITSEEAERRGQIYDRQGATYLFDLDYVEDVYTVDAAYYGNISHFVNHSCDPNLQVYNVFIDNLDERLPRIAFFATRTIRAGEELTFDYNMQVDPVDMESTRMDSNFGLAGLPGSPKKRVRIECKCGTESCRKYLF", "test": "Inhibition of SUV39H1 (unknown origin) at 10 uM using SAM as substrate measured up to 960 mins by AlphaScreen microplate reader assay relative to control", "conditions": "time min <=960"}, "[7]": {"test_system": "Histone-lysine N-methyltransferase EZH2 (Homo sapiens), Q15910 [Y641C]", "sequence (Q15910 whole entry Y641C)": "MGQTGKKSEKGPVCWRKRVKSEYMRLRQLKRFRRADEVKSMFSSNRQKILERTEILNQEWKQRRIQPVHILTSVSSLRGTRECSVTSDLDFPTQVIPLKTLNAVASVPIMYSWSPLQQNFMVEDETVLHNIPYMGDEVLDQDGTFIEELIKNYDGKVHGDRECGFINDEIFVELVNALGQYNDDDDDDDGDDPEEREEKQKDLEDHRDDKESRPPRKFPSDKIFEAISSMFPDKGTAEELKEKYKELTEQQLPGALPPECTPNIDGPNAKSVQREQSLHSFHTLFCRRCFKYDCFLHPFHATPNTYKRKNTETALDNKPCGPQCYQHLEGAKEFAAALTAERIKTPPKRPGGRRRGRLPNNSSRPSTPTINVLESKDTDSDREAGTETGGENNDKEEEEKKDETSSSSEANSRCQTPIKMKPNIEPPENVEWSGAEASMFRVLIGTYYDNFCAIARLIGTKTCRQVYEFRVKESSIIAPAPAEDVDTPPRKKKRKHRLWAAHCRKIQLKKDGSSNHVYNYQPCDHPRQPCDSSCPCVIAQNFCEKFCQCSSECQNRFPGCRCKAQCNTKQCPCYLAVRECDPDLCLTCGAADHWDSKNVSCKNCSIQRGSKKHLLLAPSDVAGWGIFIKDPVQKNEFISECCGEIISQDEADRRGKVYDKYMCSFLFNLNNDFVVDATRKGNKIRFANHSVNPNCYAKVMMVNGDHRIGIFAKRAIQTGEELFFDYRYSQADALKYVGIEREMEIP", "test": "Inhibition of EZH2 Y641C mutant (unknown origin) at 10 uM using SAM as substrate measured up to 960 mins by AlphaScreen microplate reader assay relative to control", "conditions": "time min <=960"}, "[8]": {"test_system": "Histone-lysine N-methyltransferase EZH2 (Homo sapiens), Q15910 [Y641H]", "sequence (Q15910 whole entry Y641H)": "as the sequence (Q15910 whole entry Y641C) above, with C641H counted along it", "test": "Inhibition of EZH2 Y641H mutant (unknown origin) at 10 uM using SAM as substrate measured up to 960 mins by AlphaScreen microplate reader assay relative to control", "conditions": "time min <=960"}, "[9]": {"test": "AUC (0 to t) in mouse at 1 mg/kg, iv measured up to 24 hrs by LC-MS/MS analysis", "type": "ADME, organism-based", "parameters": "route intravenous, dose 1 mg/kg, time <=24", "conditions": "in vivo"}, "[10]": {"test": "Apparent volume of distribution in rat at 1 mg/kg, iv", "type": "ADME, organism-based", "conditions": "in vivo, read-out: Vz"}, "[11]": {"test": "Half life in rat at 1 mg/kg, iv", "type": "ADME, organism-based", "conditions": "in vivo"}, "[12]": {"biological_target": "Histone-lysine N-methyltransferase SETD2 (Homo sapiens) (UniProt Q9BYW2)", "test": "Inhibition of SETD2 (unknown origin) at 10 uM using SAM as substrate measured up to 960 mins by AlphaScreen microplate reader assay relative to control", "conditions": "time min <=960"}, "[13]": {"test_system": "Histone-lysine N-methyltransferase EZH2 (Homo sapiens), Q15910 [P132S]", "sequence (Q15910 whole entry P132S)": "as the sequence (Q15910 whole entry Y641C) above, with P132S, C641Y counted along it", "test": "Inhibition of EZH2 P132S mutant (unknown origin) at 10 uM using SAM as substrate measured up to 960 mins by AlphaScreen microplate reader assay relative to control", "conditions": "time min <=960"}, "[14]": {"test_system": "KARPAS-422", "test": "Antitumor activity against human KARPAS-422 cells harboring EZH2 Y641N mutant xenografted in NCG mouse assessed as tumor growth inhibition at 200 mg/kg, po BID via gavage measured after 28 days relative to control", "type": "functional", "conditions": "KARPAS-422, po, 672 h, time 28 day, read-out: TGI"}, "[15]": {"test": "Clearance in mouse at 10 mg/kg, po measured up to 24 hrs by LC-MS/MS analysis", "type": "ADME, organism-based", "conditions": "in vivo"}, "[16]": {"test_system": "Pfeiffer", "test": "Antitumor activity against human Pfeiffer cells harboring EZH2 A677G mutant xenografted in NCG mouse assessed as tumor growth inhibition at 100 mg/kg, po BID via gavage measured after 28 days relative to control", "type": "functional", "conditions": "672 h, time 28 day, read-out: TGI"}, "[17]": {"biological_target": "Histone-lysine N-methyltransferase NSD2 (Homo sapiens) (UniProt O96028)", "test": "Inhibition of NSD2 (unknown origin) at 10 uM using SAM as substrate measured up to 960 mins by AlphaScreen microplate reader assay relative to control", "conditions": "time min <=960"}, "[18]": {"test": "AUC (0 to infinity) in rat at 1 mg/kg, iv", "type": "ADME, organism-based", "parameters": "route intravenous, time infinity, dose 1 mg/kg", "conditions": "in vivo"}, "[19]": {"test": "Half life in rat at 10 mg/kg, po", "type": "ADME, organism-based", "conditions": "in vivo"}, "[20]": {"test": "Half life in mouse at 1 mg/kg, iv measured up to 24 hrs by LC-MS/MS analysis", "type": "ADME, organism-based", "conditions": "in vivo"}, "[21]": {"test": "Antiproliferative activity against human WSUDLCL2 cells harboring EZH2 Y641F mutant assessed as inhibition of cell growth measured after 6 days by CellTiter-Glo luminescent assay", "type": "functional", "conditions": "WSUDLCL2, 144 h, time 6 day"}, "[22]": {"test_system": "U2932", "test": "Antiproliferative activity against human U2932 cells expressing wild type EZH2 assessed as inhibition of cell growth measured after 6 days by CellTiter-Glo luminescent assay", "type": "functional", "conditions": "U2932, 144 h, time 6 day"}, "[23]": {"test": "Toxicity in NCG mouse xenografted with human Pfeiffer cells harboring EZH2 A677G mutant assessed as effect on body weight at 50 to 200 mg/kg, po BID via gavage measured after 28 days", "type": "organism-based", "conditions": "in vivo, 672 h, dose 50-200 mg/kg, time 28 day"}, "[24]": {"biological_target": "Protein arginine N-methyltransferase 1 (Homo sapiens) (UniProt Q99873)", "sequence (Q99873 whole entry, looked up)": "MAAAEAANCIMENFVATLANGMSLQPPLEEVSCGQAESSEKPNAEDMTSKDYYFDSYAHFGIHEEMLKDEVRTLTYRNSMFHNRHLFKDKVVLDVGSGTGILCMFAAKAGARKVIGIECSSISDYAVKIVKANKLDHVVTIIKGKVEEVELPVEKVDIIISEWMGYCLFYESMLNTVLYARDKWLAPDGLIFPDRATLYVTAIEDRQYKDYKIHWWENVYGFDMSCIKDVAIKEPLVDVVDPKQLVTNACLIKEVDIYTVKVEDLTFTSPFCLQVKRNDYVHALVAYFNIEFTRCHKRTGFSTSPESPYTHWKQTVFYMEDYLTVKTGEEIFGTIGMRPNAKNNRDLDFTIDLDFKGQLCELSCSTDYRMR", "test": "Inhibition of PRMT1 (unknown origin) at 10 uM using SAM as substrate measured up to 960 mins by AlphaScreen microplate reader assay relative to control", "conditions": "time min <=960"}, "[25]": {"biological_target": "Protein arginine N-methyltransferase 6 (Homo sapiens) (UniProt Q96LA8)", "test": "Inhibition of PRMT6 (unknown origin) at 10 uM using SAM as substrate measured up to 960 mins by AlphaScreen microplate reader assay relative to control", "conditions": "time min <=960"}, "[26]": {"biological_target": "Histone-arginine methyltransferase CARM1 (Homo sapiens) (UniProt Q86X55)", "sequence (Q86X55 whole entry)": "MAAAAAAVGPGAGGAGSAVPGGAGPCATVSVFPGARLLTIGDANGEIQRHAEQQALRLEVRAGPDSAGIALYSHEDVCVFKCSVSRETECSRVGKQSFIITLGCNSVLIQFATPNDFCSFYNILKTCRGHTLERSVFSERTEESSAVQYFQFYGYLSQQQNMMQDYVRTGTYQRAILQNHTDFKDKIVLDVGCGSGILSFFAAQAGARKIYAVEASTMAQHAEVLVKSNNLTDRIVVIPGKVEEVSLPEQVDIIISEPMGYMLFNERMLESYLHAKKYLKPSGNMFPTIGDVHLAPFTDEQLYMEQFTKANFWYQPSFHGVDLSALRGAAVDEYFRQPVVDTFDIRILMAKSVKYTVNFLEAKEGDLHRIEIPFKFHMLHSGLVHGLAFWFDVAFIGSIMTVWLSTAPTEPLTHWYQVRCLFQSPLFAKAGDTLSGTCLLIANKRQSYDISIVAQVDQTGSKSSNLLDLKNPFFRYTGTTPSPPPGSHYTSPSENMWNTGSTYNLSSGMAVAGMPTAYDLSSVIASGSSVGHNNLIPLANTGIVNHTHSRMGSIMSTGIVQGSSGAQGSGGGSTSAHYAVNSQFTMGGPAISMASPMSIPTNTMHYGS", "test": "Inhibition of PRMT4 (unknown origin) at 10 uM using SAM as substrate measured up to 960 mins by AlphaScreen microplate reader assay relative to control", "conditions": "time min <=960"}, "[27]": {"test": "Apparent volume of distribution in mouse at 10 mg/kg, po measured up to 24 hrs by LC-MS/MS analysis", "type": "ADME, organism-based", "conditions": "in vivo"}, "[28]": {"test": "AUC (0 to infinity) in mouse at 10 mg/kg, po measured up to 24 hrs by LC-MS/MS analysis", "type": "ADME, organism-based", "parameters": "route oral, dose 10 mg/kg, time <=24", "conditions": "in vivo"}, "[29]": {"test_system": "Daudi", "test": "Antiproliferative activity against human Daudi cells expressing wild type EZH2 assessed as inhibition of cell growth measured after 6 days by CellTiter-Glo luminescent assay", "conditions": "144 h"}, "[30]": {"test": "Clearance in rat at 1 mg/kg, iv", "type": "ADME, organism-based", "conditions": "in vivo"}, "[31]": {"test": "Cmax in mouse at 10 mg/kg, po measured up to 24 hrs by LC-MS/MS analysis", "type": "ADME, organism-based", "parameters": "route oral, dose 10 mg/kg, time <=24", "conditions": "in vivo"}, "[32]": {"test_system": "KARPAS-422", "test": "Antitumor activity against human KARPAS-422 cells harboring EZH2 Y641N mutant xenografted in NCG mouse assessed as tumor growth inhibition at 50 mg/kg, po BID via gavage measured after 28 days relative to control", "type": "functional", "conditions": "KARPAS-422, po, 672 h, time 28 day, read-out: TGI"}, "[33]": {"test_system": "Pfeiffer", "test": "Antitumor activity against human Pfeiffer cells harboring EZH2 A677G mutant xenografted in NCG mouse assessed as tumor growth inhibition at 50 mg/kg, po BID via gavage measured after 28 days relative to control", "type": "functional", "conditions": "672 h, time 28 day, read-out: TGI"}, "[34]": {"test_system": "KARPAS-422", "test": "Antitumor activity against human KARPAS-422 cells harboring EZH2 Y641N mutant xenografted in NCG mouse assessed as tumor growth inhibition at 100 mg/kg, po BID via gavage measured after 28 days relative to control", "type": "functional", "conditions": "KARPAS-422, po, 672 h, time 28 day, read-out: TGI"}}, "data": [{"smiles": "CCN(C(=O)C1CC1)c1cc(-c2ccc(N3CCN(CC4CC4)CC3)nc2C)cc(C(=O)NCc2c(C)cc(C)[nH]c2=O)c1C", "values": [{"measurement": "inhibition", "setting": "[1]", "value": 0, "unit": "%"}, {"measurement": "inhibition", "setting": "[2]", "value": 0, "unit": "%"}, {"measurement": "bioavailability", "setting": "[3]", "value": 31, "unit": "%"}, {"measurement": "Vz", "setting": "[4]", "value": 20.833, "unit": "L/kg"}, {"measurement": "inhibition", "setting": "[5]", "value": 0, "unit": "%"}, {"measurement": "inhibition", "setting": "[6]", "value": 1, "unit": "%"}, {"measurement": "inhibition", "setting": "[7]", "value": 95, "unit": "%"}, {"measurement": "inhibition", "setting": "[8]", "value": 81, "unit": "%"}, {"measurement": "AUC(0-t) at 24 h", "setting": "[9]", "value": 366, "unit": "ng·h/mL"}, {"measurement": "Vd", "setting": "[10]", "value": 9.1, "unit": "L/kg"}, {"measurement": "half-life", "setting": "[11]", "value": 1.82, "unit": "h"}, {"measurement": "inhibition", "setting": "[12]", "value": 0, "unit": "%"}, {"measurement": "inhibition", "setting": "[13]", "value": 100, "unit": "%"}, {"measurement": "inhibition in vivo at 200 mg/kg", "setting": "[14]", "value": 97.3, "unit": "%"}, {"measurement": "CL", "setting": "[15]", "value": 165.9, "unit": "mL/min/kg"}, {"measurement": "inhibition in vivo at 100 mg/kg", "setting": "[16]", "value": 100, "unit": "%"}, {"measurement": "inhibition", "setting": "[17]", "value": 10, "unit": "%"}, {"measurement": "AUC(0-inf)", "setting": "[18]", "value": 195, "unit": "ng·h/mL"}, {"measurement": "half-life", "setting": "[19]", "value": 1.45, "unit": "h"}, {"measurement": "t1/2", "setting": "[20]", "value": 5.38, "unit": "h"}, {"measurement": "GI50", "setting": "[21]", "value": 0.14, "unit": "µM"}, {"measurement": "GI50", "setting": "[22]", "value": "> 10", "unit": "µM"}, {"measurement": "Activity", "setting": "[23]", "value": "Non-Toxic"}, {"measurement": "inhibition", "setting": "[24]", "value": 7, "unit": "%"}, {"measurement": "inhibition", "setting": "[25]", "value": 0, "unit": "%"}, {"measurement": "inhibition", "setting": "[26]", "value": 0, "unit": "%"}, {"measurement": "Vz", "setting": "[27]", "value": 18.638, "unit": "L/kg"}, {"measurement": "AUC(0-inf)", "setting": "[28]", "value": 1000, "unit": "ng·h/mL"}, {"measurement": "GI50", "setting": "[29]", "value": "> 10", "unit": "µM"}, {"measurement": "clearance", "setting": "[30]", "value": 85.5, "unit": "mL/min/kg"}, {"measurement": "Cmax", "setting": "[31]", "value": 671, "unit": "ng/mL"}, {"measurement": "inhibition in vivo at 50 mg/kg", "setting": "[32]", "value": 47.7, "unit": "%"}, {"measurement": "inhibition in vivo at 50 mg/kg", "setting": "[33]", "value": 91.8, "unit": "%"}, {"measurement": "inhibition in vivo at 100 mg/kg", "setting": "[34]", "value": 70.1, "unit": "%"}]}]}
